The subject of one series is GPR37-tGFP. The experiment in a line: GPR37-tGFP translocation assay. It is filed as cell-based, mouse. As to conditions: for effect in GPR37-translocation assay (hit rating): tested at 2, 10 and 20 μM. On the procedure: FIG. 2. Schematic representation of the rationale and the basic steps of GPR37-translocation assay. A. GPR37 is prone to misfolding and aggregation, which, in metabolically-active cells, are followed by degradation and results in low levels of functional receptor in the plasma membrane. The primary targets of the screening assay are compounds that can directly or indirectly facilitate maturation and trafficking of GPR37 to the plasma membrane. B. N2a cells stably expressing GPR37-tGFP are seeded in poly-D-Lysine coated 384 well plates at density 5000 cells/well. 24 h later cells are treated with compounds, including positive and negative controls, and incubated for 72 h. Then cells are fixed with 4% PFA and additionally stained with Hoechst 33342 (nuclei) and HCS CellMask™ red (cell body) to enable segmentation of the plasma membrane. Acquisition of fluorescence images is done using ImageXpress high content screening system (Molecular Devices). Quantification of GPR37-tGFP levels in the plasma membrane is done using CellProfiler software. FIG. 3. Schematic representation of Image analysis pipeline and final outcome data. Segmentation of the plasma membrane is performed in five main steps: 1) identification of nuclei (primary objects) using nuclear stain, 2) determination of cell borders using primary objects as seeds and growing these objects in respect of tGFP and HCS CellMask™ fluorescence intensity (secondary objects), 3) shrinking and expending secondary objects, 4) subtraction of shrunken cells from expended cells which results in membrane segmentation (tertiary objects), 5) tGFP fluorescence intensity is calculated within tertiary objects. Z′ factor is a quality measure of an assay which describes how well separated positive and negative controls are. Assays having Z′ factors above 0.5 are considered good assays. N2a cells stably expressing GPR37-tGFP were seeded in 384 BDFalcon BioCoat Poly-D-Lysine coated plates at a density of 5000 cells/well, and 50 μL incubation volume of maintenance medium. Cells were incubated at 37° C., 5% CO2 using humidity chamber. 24 h later, the cells were treated with 10 μL of compounds of desired concentration, including positive (2 mM dibutyryl-cAMP+0.5 mM 4-phenylbutyrate) and negative controls (0.1% DMSO), and incubated for 72 h. Cells were fixed with 4% PFA by adding 20 μL of 16% PFA directly to cell medium, incubating for 20 min and washing with PBS-Tween20 (0.05%). Directly after fixation cells were stained for nuclei with Hoechst 33342 (0.01 mg/mL) and for cell bodies with HCS CellMask™ Red stain (Thermo Fisher Scientific Inc.) (0.001 mg/mL) by incubating with the dyes for 30 min in PBS-Tween20 (0.05%) followed by washing with PBS. All the additional steps, including cell seeding were performed using Multidrop Combi dispenser (Thermo Scientific) and washing steps were done by means of HydroSpeed™ plate washer (Tecan). The images were captured using ImageXpress Micro XLS Widefield High-Content Analysis System (Molecular Devices, LLC) in 3 fluorescent channels (ImageXpress filters are listed, followed by excitation/emission in nm): DAPI (387/447), FITC (482/536) and TexasRed (562/624). Binning 2 was applied during the acquisition and digital confocal option was used for FITC and TexasRed filters. Typically, 5 images were taken per well at magnification 20× and stored as 16 bit, gray scale tif files along with metadata in Oracle database, for further analysis. Quantification of GPR37-tGFP levels in the plasma membrane was done using CellProfiler™ software. CellProfiler™ is an open-source cell image analysis software available at www.cellprofiler.org. An image analysis pipeline used for membrane segmentation consisted of 5 main steps (FIG. 3): 1) segmentation of nuclei (primary objects); 2) segmentation of cell bodies (secondary objects); 3) shrinking and expending cell bodies; 4) subtraction of shrank cells from expanded cells (tertiary objects—membranes); 5) calculating tGFP fluorescence in the membranes. […]

The next series addresses T1, hepatic aldehyde oxidase (Homo sapiens, UniProt Q06278).
T1 sequence (Q06278 1-1338): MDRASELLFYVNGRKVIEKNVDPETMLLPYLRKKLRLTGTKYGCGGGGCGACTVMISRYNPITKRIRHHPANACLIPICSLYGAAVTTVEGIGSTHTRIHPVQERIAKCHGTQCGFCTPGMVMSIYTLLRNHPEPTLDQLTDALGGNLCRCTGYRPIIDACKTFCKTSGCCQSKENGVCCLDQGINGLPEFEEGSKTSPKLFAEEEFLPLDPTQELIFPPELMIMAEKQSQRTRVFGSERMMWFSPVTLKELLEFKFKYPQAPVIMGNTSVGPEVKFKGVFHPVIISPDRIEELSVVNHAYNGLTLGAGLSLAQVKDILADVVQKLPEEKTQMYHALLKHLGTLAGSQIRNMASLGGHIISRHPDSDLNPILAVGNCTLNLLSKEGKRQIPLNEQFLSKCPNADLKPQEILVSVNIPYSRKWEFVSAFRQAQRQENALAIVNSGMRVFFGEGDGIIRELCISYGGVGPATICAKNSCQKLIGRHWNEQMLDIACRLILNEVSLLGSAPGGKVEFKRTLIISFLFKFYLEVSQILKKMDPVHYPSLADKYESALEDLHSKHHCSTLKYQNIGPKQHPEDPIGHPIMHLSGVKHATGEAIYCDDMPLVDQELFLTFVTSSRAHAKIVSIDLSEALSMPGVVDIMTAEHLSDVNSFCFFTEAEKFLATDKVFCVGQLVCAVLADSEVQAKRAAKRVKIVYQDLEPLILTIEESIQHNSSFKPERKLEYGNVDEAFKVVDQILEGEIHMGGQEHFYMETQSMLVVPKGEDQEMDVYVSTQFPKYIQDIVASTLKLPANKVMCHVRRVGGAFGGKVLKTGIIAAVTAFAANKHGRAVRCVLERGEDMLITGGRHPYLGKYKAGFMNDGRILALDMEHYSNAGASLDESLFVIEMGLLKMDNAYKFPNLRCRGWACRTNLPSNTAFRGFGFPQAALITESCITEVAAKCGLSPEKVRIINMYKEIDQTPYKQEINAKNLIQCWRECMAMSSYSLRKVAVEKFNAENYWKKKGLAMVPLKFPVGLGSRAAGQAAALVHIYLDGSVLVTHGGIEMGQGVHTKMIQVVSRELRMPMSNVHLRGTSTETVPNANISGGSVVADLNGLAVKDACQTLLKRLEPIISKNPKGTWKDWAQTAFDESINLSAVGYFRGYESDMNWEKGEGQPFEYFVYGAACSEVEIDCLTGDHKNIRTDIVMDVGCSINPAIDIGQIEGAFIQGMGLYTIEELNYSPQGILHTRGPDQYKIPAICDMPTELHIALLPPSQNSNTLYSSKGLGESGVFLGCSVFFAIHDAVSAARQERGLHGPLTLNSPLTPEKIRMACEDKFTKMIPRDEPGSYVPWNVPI
As to conditions: cited from earlier work.

For series [1] the following is noted: compared with idoxuridine; cited from earlier work.

Structures are written as SMILES.

With `O=c1[nH]c(=O)n([C@H]2C[C@H](O)[C@@H](CO)O2)cc1O` [Compound 2, 5-hydroxy-1-((2R,4S,5R)-4-hydroxy-5-(hydroxymethyl)tetrahydrofuran-2-yl)pyrimidine-2,4(1H,3H)-dione], the “effect in GPR37-translocation assay (hit rating)” value with GPR37-tGFP is recorded as “slight positive effect”. `C#Cc1cn([C@H]2C[C@H](O)[C@@H](CO)O2)c(=O)[nH]c1=O` [Compound 4, 5-ethynyl-1-((2R,4S,5R)-4-hydroxy-5-(hydroxymethyl)-tetrahydrofuran-2-yl)pyrimidine-2,4(1H,3H)-dione]: the “effect in GPR37-translocation assay (hit rating)” value with GPR37-tGFP is listed as “slight positive effect”. Still for that read-out and setting: for `Nc1cccc(-c2cn([C@H]3C[C@H](O)[C@@H](CO)O3)c(=O)[nH]c2=O)c1` [Compound 17, 5-(3-aminophenyl)-1-((2R,4S,5R)-4-hydroxy-5-(hydroxy-methyl)tetrahydrofuran-2-yl)pyrimidine-2,4(1H,3H)-dione] the value was “strong hit”. As for `CCCC(=O)Nc1ncnc2c1ncn2[C@@H]1O[C@@H]2COP(=O)(O)O[C@H]2[C@H]1OC(=O)CCC` [dibutyryl-cAMP], the “increase of GPR37-tGFP in the plasma membrane” value with GPR37-tGFP (without starvation, used as positive control) is given as “remarkable increase”. In the case of `O=c1ncc(I)cn1[C@H]1C[C@H](O)[C@@H](CO)O1` [ropidoxuridine, 1-((2R,4S,5R)-4-hydroxy-5-(hydroxymethyl)tetrahydrofuran-2-yl)-5-iodopyrimidin-2(1H)-one], the “metabolic conversion to idoxuridine” value on hepatic aldehyde oxidase is “efficiently converted to idoxuridine”. Besides, in series [1], the stability in vivo result is reported as “more stable” and the toxicity in vivo result is recorded as “less toxic”.

Values taken from patent publication US11103525B2, “Idoxuridine and its analogs as neuroprotectans for the treatment of parkinsonism” (priority 2017, dated 2021).
